Laboratory results taken from patent US10711006B2, “Selective Bruton's tyrosine kinase inhibitor and use thereof” (HANGZHOU HERTZ PHARMACEUTICAL CO., LTD., priority 2016, dated 2020).

How the values were obtained:
hERG potassium channel = hERG potassium channel (Homo sapiens (Human), UniProt Q12809); experiment: hERG potassium channel inhibitory activity, manual patch clamp in CHO cells; format: cell-based; details: CHO cells stably expressing hERG, whole-cell patch clamp
Procedure: The cells used in this experiment were CHO cell lines transfected with HergCdna and stably expressing Herg channels (supplied by Sophion Bioscience, Denmark). The cells were cultured in a medium containing the following components (all from Invitrogen): Ham's F12 medium, 10% (v/v) inactivated fetal bovine serum, 100 μg/ml hygromycin B, 100 μg/ml Geneticin. […] 24 to 48 hours before an electrophysiological experiment, CHO Herg cells were transferred to circular slides placed in the culture dishes and grow with the same culture liquid under the same culture conditions as above. The density of CHO Herg cells on each circular slide was required to reach such a value that most cells were independent and stand alone.
2. Treatment and Dilution of a Compound
Before the test, the compound was first diluted with DMSO at gradient to make stock solutions with concentrations of 10, 3, 1, 0.3 and 0.1 Mm and the stock solutions were then diluted with extracellular fluid to a final Mm test concentration. Except that the DMSO concentration in the 30 Mm compound test solution was 0.3%, the final concentration of DMSO in each of the compound solutions with other concentrations was 0.1%. The test concentration of a positive control Cisapridewas 0.1 Mm. All compound solutions were conventionally sonicated and shaken for 5 to 10 minutes to ensure complete dissolution of the compound.
3. Electrophysiological Recording System and Data Analysis
This experiment uses a manual patch clamp system (HEKA EPC-10 signal amplifier and digital conversion system, purchased from HEKA Electronics, Germany) for the recording of whole cell currents. The circular slides with CHO Herg cells growing on the surfaces were placed in an electrophysiological recording slot under an inverted microscope. The extracellular fluid was used for continuous perfusion in the recording slot (approximately lml per minute). The experimental procedure uses a conventional whole-cell patch clamp current recording technique. Unless otherwise stated, the experiment was carried out at regular room temperature ([…]). The cells were clamped at a voltage of −80 Mv. The cell clamp voltage was depolarized to +20 Mv to activate the Herg potassium channel, and 5 seconds later, it was clamped to −50 Mv to eliminate inactivation and generate tail current. The peak of the tail current was used as the value of the Herg current. After the hERG potassium current recorded in the above step was stabilized under the continuous extracellular fluid perfusion in the recording slot, the drug to be tested can be superimposed to the perfusion until the inhibitory effect of the drug on the hERG current reaches a steady state. Generally, the criterion for determine whether or not the stable state was reached was that the recent three consecutive current recording lines were coincident. After the steady state was reached, extracellular fluid perfusion was carried out for flushing until the hERG current returns to the magnitude before the drug was added. One cell may be used for testing one or more drugs, or multiple concentrations of the same drug, and flushing with extracellular fluid was carried out between tests of different drugs. Cisapride (purchased from Sigma) was used in the experiment as a positive control to ensure that the cells used were of normal quality. The test data was analyzed by data analysis software provided by HEKA Patchmaster, Microsoft Excel and Graphpad Prism.

[1] = system: human diffuse large B lymphoma (TMD-8); experiment: In-vitro tumor cell proliferation inhibition (CCK-8), TMD-8; details: TMD8, 72 h, read-out: Tumor cell proliferation inhibitory activity (IC50, nM) TMD-8
BTK Kinase = BTK Kinase (Homo sapiens (Human), UniProt Q06187); experiment: In-vitro Btk kinase inhibitory activity assay; format: biochemical
Procedure: In-Vitro Btk Kinase Inhibitory Activity Assay for Compounds of the Present Invention:
10 μL of the 50× drug stock solution was added to a 96-well plate and then 90 μL of a 1× Kinase Buffer was added and the 96-well plate was shaken for 10 minutes on a shaker. From each well of the 96-well plate, 5 μL of the drug solution was taken and then transferred to a 384-well plate which was provided with 2 duplicate wells.
Preparation of a 2.5× Kinase Buffer: an enzyme was added to the 1× kinase base buffer.
Prepare a 2.5× oligopeptide solution: FAM-labeled oligopeptide and ATP were added to the 1× kinase base buffer.
10 μL of the 2.5× Kinase Buffer was added to the 384-well plate loaded with 5 μL of the drug solution and incubation was then carried out for 10 minutes at room temperature. 10 μL of the 2.5× oligopeptide solution was added to the 384-well plate and incubation was then carried out for 1 hour at 28° C. The reaction was stopped by adding 25 μL of a stop buffer. The readings were recorded and the inhibition rate of the compound on the enzyme was calculated. The IC50 of BTK kinase was calculated by fitting.

[2] = system: human mantle cell lymphoma (MINO); experiment: In-vitro tumor cell proliferation inhibition (CCK-8), MINO; details: 72 h, read-out: Tumor cell proliferation inhibitory activity (IC50, μM) MINO
[3] = system: human lung cancer cell (A549); experiment: In-vitro tumor cell proliferation inhibition (CCK-8), A549; details: A549, 72 h, read-out: Tumor cell proliferation inhibitory activity (IC50, μM) A549
[4] = system: diffuse giant B-cell lymphoma (OCI-LY10); experiment: In-vitro tumor cell proliferation inhibition (CCK-8), OCI-LY10; details: Homo sapiens, OCI-Ly10, 72 h, read-out: Tumor cell proliferation inhibitory activity (IC50, nM) OCI-LY10
Procedure: The in-vitro antitumor activity assay was carried out on the synthesized compound by using different solid tumors and leukemia cell lines:
Cell lines: human lung cancer cell (A549), human mantle cell lymphoma (MINO), diffuse giant B-cell lymphoma (OCI-LY10), and human diffuse large B lymphoma (TMD-8).
Preparation method of the drug: the drug was dissolved in DMSO to make a 10 mM stock solution, and then the stock solution was diluted in a certain ratio to obtain 5 different concentrations (test concentration 100×). In-vitro culture of tumor cells:
The tumor cells A549, MINO, OCI-LY10, and TMD-8 were seeded in a 96-well plate at 4000 cells/200 μL/well and then incubated overnight at 37° C. in a 5% CO2 cell culture incubator. 2 μL of the compound was added to each well to final concentrations of 50 μM, 10 μM, 2 μM, 0.4 μM, and 0.08 μM and then incubated for 72 hours at 37° C. in a 5% CO2 cell incubator, with DMSO (2%) as a control group. […] Wells loaded with the corresponding amount of cell culture fluid the and CCK-8 solution but no cells were considered as blank controls. The absorbance (OD value) was measured at 450 nm using a microplate reader, and the obtained data was used to calculate IC50.

[5] = system: Mino subcutaneous xenograft tumor; experiment: In-vivo pharmacodynamic study on Mino subcutaneous xenograft tumor models; details: CB17 SCID mice, intragastric, twice a day
Procedure: In CB17 SCID mice, 0.2 mL of cell suspension containing 5×10^6 Mino cells was subcutaneously inoculated into the right back of each mouse, and when the mean tumor volume reaches approximately 139.94 mm3 (day 26 after inoculation), group administration was started (intragastric administration, twice a day, 14 days in total). Animals were monitored daily for health and mortality, and tumor diameters were measured twice a week using vernier calipers to see if tumor growth could be inhibited, delayed, or cured.

[6] = system: arthritis induced by anti-collagen antibodies and lipopolysaccharides; experiment: Rheumatoid arthritis model induced by anti-collagen antibodies and lipopolysaccharides; format: in vivo, Balb/c mice
Procedure: In Balb/c mice, arthritis was induced by administration of anti-collagen antibodies and lipopolysaccharides (Nandakumar et al., Am. J. Pathol. 2003, 163: 1827-1837).
The specific method was as follows: On Day 0, female Balb/c mice were intravenously injected with anti-type II collagen ChemicomAb mixture in a dose of 100 mg/kg, and on Day 1, lipopolysaccharide was intraperitoneally injected in a dose of 1.25 mg/kg. From Day 2 to Day 12, Compounds 15a, 17a, 24a and 24e were orally administered once a day in a dose of 10 mg/kg. On Day 13 after abdominal anesthesia, […] of blood was taken from the femoral artery and centrifuged at 3000 r/min for 20 minutes, serum was taken to detect IL-1β with a test kit, and related tissue samples were observed.

[7] = Oral pharmacokinetic experiment in SD rats; format: in vivo; details: mean n = 3
Procedure: SD rats were used as experimental animals and were subjected to intragastric administration in a dose of 10 mg/kg and tail-vein intravenous injection in a dose of 2 mg/kg. The tail-vein blood sampling time points in the intragastric administration were 0.17, 0.33, 0.5, 1, 1.5, 2, 4, 6, 8, 12, and 24 hours; the blood sampling time points in the intravenous administration were 0.05, 0.1, 0.17, 0.5, 1, 2, 4, 6, 8, 12, and 24 hours. 0.3 ml of whole blood was taken, and 0.1 ml of plasma after centrifugation was taken and analyzed by LC-MS.

[8] = rat, plasma, oral (intragastric) 10 mg/kg

hERG potassium channel, sequence (Q12809 whole entry): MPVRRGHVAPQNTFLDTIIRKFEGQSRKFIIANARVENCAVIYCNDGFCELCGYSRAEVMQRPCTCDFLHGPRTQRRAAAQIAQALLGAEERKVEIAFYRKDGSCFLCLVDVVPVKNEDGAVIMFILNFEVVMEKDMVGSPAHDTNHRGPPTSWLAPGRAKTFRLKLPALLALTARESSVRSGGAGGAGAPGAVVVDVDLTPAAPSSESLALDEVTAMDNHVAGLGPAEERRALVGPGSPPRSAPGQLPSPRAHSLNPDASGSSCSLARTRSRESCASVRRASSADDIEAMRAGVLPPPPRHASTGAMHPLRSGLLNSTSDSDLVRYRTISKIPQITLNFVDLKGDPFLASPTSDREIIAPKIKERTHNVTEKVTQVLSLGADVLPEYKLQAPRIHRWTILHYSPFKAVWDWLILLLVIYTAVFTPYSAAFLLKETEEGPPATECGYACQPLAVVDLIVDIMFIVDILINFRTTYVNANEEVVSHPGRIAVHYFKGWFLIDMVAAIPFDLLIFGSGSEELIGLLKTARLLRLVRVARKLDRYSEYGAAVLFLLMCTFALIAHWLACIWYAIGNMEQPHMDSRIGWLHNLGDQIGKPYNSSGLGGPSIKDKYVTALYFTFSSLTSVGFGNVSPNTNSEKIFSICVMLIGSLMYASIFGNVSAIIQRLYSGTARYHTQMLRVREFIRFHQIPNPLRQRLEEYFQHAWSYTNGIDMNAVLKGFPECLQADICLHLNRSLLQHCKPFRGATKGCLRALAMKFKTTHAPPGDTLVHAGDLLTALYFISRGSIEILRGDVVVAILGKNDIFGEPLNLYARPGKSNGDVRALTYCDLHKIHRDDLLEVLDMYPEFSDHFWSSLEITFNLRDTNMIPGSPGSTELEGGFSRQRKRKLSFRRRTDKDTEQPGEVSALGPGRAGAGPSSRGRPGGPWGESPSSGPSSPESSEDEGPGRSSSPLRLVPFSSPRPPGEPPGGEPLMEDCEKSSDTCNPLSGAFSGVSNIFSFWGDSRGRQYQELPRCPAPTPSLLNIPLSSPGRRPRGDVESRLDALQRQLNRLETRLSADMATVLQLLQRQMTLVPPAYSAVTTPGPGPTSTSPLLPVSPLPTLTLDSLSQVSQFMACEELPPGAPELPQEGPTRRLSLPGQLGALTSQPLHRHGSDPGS
BTK Kinase, sequence (Q06187 whole entry): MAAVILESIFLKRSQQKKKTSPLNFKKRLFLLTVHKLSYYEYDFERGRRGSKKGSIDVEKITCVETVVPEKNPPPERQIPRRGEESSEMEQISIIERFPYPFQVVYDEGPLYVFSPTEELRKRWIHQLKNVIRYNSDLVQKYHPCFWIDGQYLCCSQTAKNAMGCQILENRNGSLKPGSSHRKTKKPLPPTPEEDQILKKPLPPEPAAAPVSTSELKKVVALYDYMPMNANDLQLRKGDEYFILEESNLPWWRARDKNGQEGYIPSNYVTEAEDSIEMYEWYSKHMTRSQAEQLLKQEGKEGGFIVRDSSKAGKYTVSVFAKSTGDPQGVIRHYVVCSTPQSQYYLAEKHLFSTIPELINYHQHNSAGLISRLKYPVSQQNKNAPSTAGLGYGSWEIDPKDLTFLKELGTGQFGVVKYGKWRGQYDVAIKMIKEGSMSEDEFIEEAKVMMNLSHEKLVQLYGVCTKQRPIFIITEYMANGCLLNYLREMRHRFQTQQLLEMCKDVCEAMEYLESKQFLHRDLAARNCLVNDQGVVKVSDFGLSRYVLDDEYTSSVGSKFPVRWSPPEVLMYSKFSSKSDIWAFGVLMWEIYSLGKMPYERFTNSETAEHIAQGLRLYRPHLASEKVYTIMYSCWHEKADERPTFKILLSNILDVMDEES

| Structure (SMILES) | IC50 [1] [nM] | IC50 (BTK Kinase) [nM] | IC50 [2] [µM] | IC50 [3] [µM] | IC50 [4] [nM] | AUC0-C(ng/h/mL) ([7]; oral (intragastric) 10 mg/kg) [ng·h/mL] | AUC0-t (ng/h/mL) ([7]; oral (intragastric) 10 mg/kg) [ng·h/mL] | bioavailability ([7]; rat, plasma, oral 10 mg/kg vs intravenous 2 mg/kg) [%] | Cmax [7, 8] [ng/mL] | Tmax [7, 8] [min] | half-life [7, 8] [min] | IC50 (hERG potassium channel) [µM] | TGI*(14 days) (%) calculated on the basis of tumor volume [5] [%] | TGI**(14 days) (%) calculated on the basis of tumor weight [5] [%] | level of IL-1β in serum (in words) ([6]; 10 mg/kg orally once a day, versus model group) | IL-1β ([6]; serum on Day 13, 10 mg/kg orally once a day Day 2 to Day 12) [ng/L] | inflammatory cell infiltration, synovial hyperplasia, inflammatory granulation tissue formation, necrotic tissue ([6]; tissue samples after treatment, versus model group) |
| --- | --- | --- | --- | --- | --- | --- | --- | --- | --- | --- | --- | --- | --- | --- | --- | --- | --- |
| C=CC(=O)N1CCC[C@@H](n2nc(-c3cnc(Oc4ccccc4)nc3)c3c(N)ncnc32)C1 [Compound 18, (R)-1-(3-(4-amino-3-(2-phenoxypyrimidin-5-yl)-1H-pyrazolo[3,4-d]pyrimidin-1-yl)piperidin-1-yl)prop-2-en-1-one] | 8.14 | 10.3 | 20.3 | 19.5 | 32.1 | – | – | – | – | – | – | – | – | – | – | – | – |
| C=CC(=O)N1CCC[C@@H](n2nc(-c3ccc(Oc4ccccc4)cn3)c3c(N)ncnc32)C1 [Compound 19, (R)-1-(3-(4-amino-3-(5-phenoxypyridin-2-yl)-1H-pyrazolo[3,4-d]pyrimidin-1-yl)piperidin-1-yl)prop-2-en-1-one] | 10.2 | 5.3 | 7.12 | 4.52 | 13.6 | – | – | – | – | – | – | 10.6 | – | – | – | – | – |
| CC/C=C/C(=O)N1CCC[C@@H](n2nc(-c3ccc(Oc4ccccc4)nc3)c3c(N)ncnc32)C1 [Compound 20a, (R)-1-(3-(4-amino-3-(6-phenoxypyridin-3-yl)-1H-pyrazolo[3,4-d]pyrimidin-1-yl)piperidin-1-yl) pent-2-en-1-one] | 15.2 | 18.6 | 8.92 | 7.7 | 12.5 | – | – | – | – | – | – | 14.8 | – | – | – | – | – |
| C=CC(=O)N1CC[C@@H](n2nc(-c3ccc(Oc4ccccc4)nc3)c3c(N)ncnc32)C1 [Compound 23a, (R)-1-(3-(4-amino-3-(6-phenoxypyridin-3-yl)-1H-pyrazolo[3,4-d]pyrimidin-1-yl)pyrrolidin-1-yl)prop-2-en-1-one] | 28.3 | 4.4 | 9.19 | 2.83 | 6.91 | – | – | – | – | – | – | 18.2 | – | – | – | – | – |

The next compounds have a lower IC50 [1] than those just listed; values first:

| IC50 [1] [nM] | IC50 (BTK Kinase) [nM] | IC50 [2] [µM] | IC50 [3] [µM] | IC50 [4] [nM] | AUC0-C(ng/h/mL) ([7]; oral (intragastric) 10 mg/kg) [ng·h/mL] | AUC0-t (ng/h/mL) ([7]; oral (intragastric) 10 mg/kg) [ng·h/mL] | bioavailability ([7]; rat, plasma, oral 10 mg/kg vs intravenous 2 mg/kg) [%] | Cmax [7, 8] [ng/mL] | Tmax [7, 8] [min] | half-life [7, 8] [min] | Structure (SMILES) | IC50 (hERG potassium channel) [µM] | TGI*(14 days) (%) calculated on the basis of tumor volume [5] [%] | TGI**(14 days) (%) calculated on the basis of tumor weight [5] [%] | level of IL-1β in serum (in words) ([6]; 10 mg/kg orally once a day, versus model group) | IL-1β ([6]; serum on Day 13, 10 mg/kg orally once a day Day 2 to Day 12) [ng/L] | inflammatory cell infiltration, synovial hyperplasia, inflammatory granulation tissue formation, necrotic tissue ([6]; tissue samples after treatment, versus model group) |
| --- | --- | --- | --- | --- | --- | --- | --- | --- | --- | --- | --- | --- | --- | --- | --- | --- | --- |
| 7.13 | 1.8 | 8.98 | 1.93 | 4.02 | 1620 | 1600 | 46.1 | 1440 | 15 | 214 | C=CC(=O)N1CC[C@@H](n2nc(-c3ccc(Oc4cccc(F)c4F)nc3F)c3c(N)ncnc32)C1 [Compound 24e, (R)-1-(3-(4-amino-3-(6-(2,3-difluorophenoxy)-2-fluoropyridin-3-yl)-1H-pyrazolo[3,4-d]pyrimidin-1-yl)pyrrolidin-1-yl)prop-2-en-1-one] | – | 68.04 | 62.16 | significantly reduce | 20.45 ± 5.1 | significantly improved |
| 5.18 | 25.1 | 6.5 | 5.3 | 5.13 | – | – | – | – | – | – | CC#CC(=O)N1CC[C@@H](n2nc(-c3ccc(Oc4ccccc4)nc3)c3c(N)ncnc32)C1 [Compound 25a, (R)-1-(3-(4-amino-3-(6-phenoxypyridin-3-yl)-1H-pyrazolo[3,4-d]pyrimidin-1-yl)pyrrolidin-1-yl)but-2-yn-1-one] | 13.6 | – | – | – | – | – |
| 4.99 | 6.5 | 8.35 | 8.21 | 3.19 | – | – | – | – | – | – | C=CC(=O)N1CCC[C@@H](n2nc(-c3ccc(Oc4ccc(C)cc4)nc3)c3c(N)ncnc32)C1 [Compound 15i] | 13.5 | – | – | – | – | – |
| 3.8 | 1.2 | 7.65 | 1.02 | 2.04 | – | – | – | – | – | – | C=CC(=O)N1CCC[C@@H](n2nc(-c3ccc(Oc4cccc(F)c4F)nc3F)c3c(N)ncnc32)C1 [Compound 17i, (R)-1-(3-(4-amino-3-(6-(2,3-difluorophenoxy)-2-fluoropyridin-3-yl)-1H-pyrazolo[3,4-d]pyrimidin-1-yl)piperidin-1-yl)prop-2-en-1-one] | – | – | – | – | – | – |
| 2.37 | 9.5 | 8.19 | 2.88 | 3.58 | – | – | – | – | – | – | C=CC(=O)N1CCC[C@@H](n2nc(-c3ccc(Oc4ccc(F)cc4)nc3)c3c(N)ncnc32)C1 [Compound 15b, (R)-1-(3-(4-amino-3-(6-(4-fluorophenoxypyridine)-3-yl)-1H-pyrazolo[3,4-d]pyrimidin-1-yl)piperidin-1-yl)prop-2-en-1-one] | 11.6 | – | – | – | – | – |
